Test systems include HOP-62 NSCLC; CCRF-CEM leukemia; SF-539 CNS; UO-31 renal; SK-MEL-2 melanoma; A549 NSCLC; MDA-MB-231 breast; MOLT-4 leukemia; NCI/ADR-RES ovarian; MALME-3M melanoma.
Assay in all cases: NCI tumour cell line growth inhibition, 48 h

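Assay format: 96-well plates, 48-hour exposure. GI50 marks 50% less growth. TGI is the concentration that stops growth completely.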

On to `COc1ccc2c(c1)[nH]c(=O)c1c3cccc(F)c3cn21`, for which the GI50 with HOP-62 NSCLC was 0.641 µM; in the experiment with CCRF-CEM leukemia it was 0.0282 µM; with SF-539 CNS, 0.0522 µM; in the experiment with UO-31 renal, 0.0596 µM; in the experiment with SK-MEL-2 melanoma it was 0.469 µM; with A549 NSCLC, 0.0667 µM. Besides, the GI50 with MDA-MB-231 breast was 0.283 µM; in the experiment on MOLT-4 leukemia, 0.0425 µM; with NCI/ADR-RES ovarian it was 0.038 µM. Besides, the TGI was 51.3 µM in the experiment on HOP-62 NSCLC; 0.304 µM with CCRF-CEM leukemia; 0.455 µM with SF-539 CNS; more than 70.6 µM in the experiment with UO-31 renal; more than 100 µM in the experiment on SK-MEL-2 melanoma; more than 100 µM with A549 NSCLC. The TGI in the experiment with MDA-MB-231 breast was more than 100 µM; in the experiment on MOLT-4 leukemia, 14.6 µM; in the experiment on NCI/ADR-RES ovarian, 14.3 µM.

Consider `COC(=O)C1=C(O)[C@H](C(=O)OC)C2(O)C(C(=O)OC)[C@H](c3ccc(OC(=O)C(C)c4ccc(CC(C)C)cc4)cc3)C[C@@H]1[C@@H]2C(=O)OC` (stereo partly drawn), for which the GI50 in the experiment on HOP-62 NSCLC is 31.7 µM; with SF-539 CNS, 1.4 µM; in the experiment on UO-31 renal, 12.3 µM; in the experiment on SK-MEL-2 melanoma, 24.9 µM; in the experiment with A549 NSCLC, 26.8 µM; in the experiment on MDA-MB-231 breast it was 5.52 µM. In addition, the GI50 with NCI/ADR-RES ovarian is more than 50 µM. Besides, the TGI was more than 50 µM in the experiment with HOP-62 NSCLC; 8.05 µM with SF-539 CNS; more than 50 µM in the experiment with UO-31 renal; more than 50 µM with SK-MEL-2 melanoma; more than 50 µM in the experiment with A549 NSCLC; 22.8 µM in the experiment with MDA-MB-231 breast. Further, the TGI in the experiment with NCI/ADR-RES ovarian was more than 50 µM.

In the case of `O=S(=O)(NNc1ccccc1)c1ccccc1`, the TGI in the experiment with HOP-62 NSCLC was 32.7 µM; with CCRF-CEM leukemia it was 50 µM; with SF-539 CNS, more than 100 µM; with UO-31 renal it was 25.7 µM; in the experiment on SK-MEL-2 melanoma, 44.3 µM; with A549 NSCLC, 23.5 µM. The values for the TGI in the experiment on MDA-MB-231 breast, in the experiment with MOLT-4 leukemia and in the experiment with NCI/ADR-RES ovarian were 17.5 µM, 99 µM and 36.1 µM, respectively.

As for `CCCCCCCCCCCCCC[N+](C)(C)CCCCCCCCCCCCCC`, the GI50 in the experiment on UO-31 renal was 4.44 µM; with MOLT-4 leukemia it was 2.41 µM; with NCI/ADR-RES ovarian it was 7.42 µM. Moreover, the TGI in the experiment with UO-31 renal is more than 100 µM; in the experiment on MOLT-4 leukemia, 6.44 µM; in the experiment on NCI/ADR-RES ovarian, 63.4 µM.

In the case of `CNC(=O)c1c(NC(=O)c2ccc(C(C)(C)C)cc2)sc2c(CN(C)C)c(O)ccc12`, the GI50 in the experiment on CCRF-CEM leukemia was 1.2 µM; with SF-539 CNS it was 1.66 µM; in the experiment on UO-31 renal it was 1.49 µM; in the experiment with MALME-3M melanoma it was 1.73 µM; in the experiment with SK-MEL-2 melanoma it was 2.1 µM; in the experiment with MDA-MB-231 breast, 1.81 µM. For the same compound, the GI50 in the experiment with MOLT-4 leukemia is 1.28 µM. For the same compound, the TGI in the experiment on CCRF-CEM leukemia was 4.68 µM; in the experiment with SF-539 CNS, 3.13 µM; in the experiment on UO-31 renal, 2.89 µM; in the experiment with MALME-3M melanoma, 3.51 µM; in the experiment on SK-MEL-2 melanoma it was 4.28 µM; in the experiment with MDA-MB-231 breast it was 3.67 µM. In the experiment on MOLT-4 leukemia, the TGI turned out to be 3.73 µM.

Regarding `CN(C)c1ccc2oc(=O)c3ccccc3c2c1`, the TGI is 80.5 µM with HOP-62 NSCLC; more than 100 µM in the experiment on CCRF-CEM leukemia; more than 100 µM in the experiment with SF-539 CNS; more than 100 µM with MALME-3M melanoma; 84.1 µM in the experiment on SK-MEL-2 melanoma; more than 100 µM in the experiment on A549 NSCLC. Moreover, the TGI in the experiment with MDA-MB-231 breast was 82.9 µM; in the experiment on MOLT-4 leukemia it was more than 100 µM.

Regarding `Nc1ccc(C2=CC(c3ccc(Cl)cc3)N3C=CSC3=N2)cc1` (stereo not drawn), the GI50 in the experiment on HOP-62 NSCLC is 4.38 µM; with SF-539 CNS it was 1.84 µM; in the experiment with UO-31 renal, 2.33 µM; in the experiment with MALME-3M melanoma, 18.1 µM; with SK-MEL-2 melanoma, 26.3 µM; with A549 NSCLC, 3.68 µM. In addition, the GI50 in the experiment with MDA-MB-231 breast was 4.76 µM; with MOLT-4 leukemia, 4.03 µM; in the experiment with NCI/ADR-RES ovarian, 7.89 µM. The TGI was 16.4 µM in the experiment on HOP-62 NSCLC; 3.85 µM in the experiment with SF-539 CNS; 11 µM in the experiment with UO-31 renal; 47.8 µM in the experiment on MALME-3M melanoma; 59.3 µM with SK-MEL-2 melanoma; 53.4 µM with A549 NSCLC. The TGI was 46.9 µM in the experiment with MDA-MB-231 breast, 89.7 µM with MOLT-4 leukemia and more than 100 µM with NCI/ADR-RES ovarian.

As to `CC1CC[P+](c2ccccc2)(c2ccccc2)c2c1ccc1ccccc21` (stereo not drawn), the GI50 with HOP-62 NSCLC is 11.5 µM; with MDA-MB-231 breast it was 8.98 µM. The TGI with HOP-62 NSCLC is more than 57.5 µM; in the experiment with CCRF-CEM leukemia, 42.1 µM; in the experiment on SF-539 CNS, 35.8 µM; in the experiment on UO-31 renal it was more than 68.3 µM; in the experiment with SK-MEL-2 melanoma, 7.13 µM; with A549 NSCLC it was more than 100 µM. The TGI with MDA-MB-231 breast was more than 45 µM; with MOLT-4 leukemia, 37.6 µM; with NCI/ADR-RES ovarian, more than 100 µM.

The record behind these values is PubChem BioAssay (NCI).
